Data reported in ChEMBL document CHEMBL3228036, “A new chemical series active against African trypanosomes: benzyltriphenylphosphonium salts” (J Med Chem, 1979).
Calls of active or inactive are those of the source. The calls are words filed in the database; no cut-off is given here.

Assays:
[1] = tested on: Trypanosoma brucei rhodesiense; experiment: […] activity against Trypanosoma brucei rhodesiense Wellcome CT infected in ICR/HA mouse assessed as curated mouse at 53 mg/kg, sc treated within 2 hrs of parasite infection measured up to 30 days; assay type: functional, organism-based; design: dose 53 mg/kg
[2] = tested on: Trypanosoma brucei rhodesiense; experiment: […] activity against Trypanosoma brucei rhodesiense Wellcome CT infected in ICR/HA mouse assessed as curated mouse at 424 mg/kg, sc treated within 2 hrs of parasite infection measured up to 30 days; assay type: functional, organism-based; design: dose 424 mg/kg
[3] = tested on: Trypanosoma brucei rhodesiense; experiment: […] activity against Trypanosoma brucei rhodesiense Wellcome CT infected in ICR/HA mouse assessed as curated mouse at 53 mg/kg, po treated within 2 hrs of parasite infection measured up to 30 days; assay type: functional, organism-based; design: dose 53 mg/kg
Mus musculus [4] = experiment: Toxicity in Trypanosoma brucei rhodesiense Wellcome CT infected ICR/HA mouse assessed as mortality at 424 mg/kg, po treated within 2 hrs of parasite infection measured up to 30 days; assay type: organism-based; design: dose 424 mg/kg, route oral; settings: in vivo
[5] = tested on: Trypanosoma brucei rhodesiense; experiment: […] activity against Trypanosoma brucei rhodesiense Wellcome CT infected in ICR/HA mouse assessed as curated mouse at 424 mg/kg, po treated within 2 hrs of parasite infection measured up to 30 days; assay type: functional, organism-based; design: dose 424 mg/kg
[6] = tested on: Trypanosoma brucei rhodesiense; experiment: […] activity against Trypanosoma brucei rhodesiense Wellcome CT infected in ICR/HA mouse assessed as curated mouse at 13.3 mg/kg, po treated within 2 hrs of parasite infection measured up to 30 days; assay type: functional, organism-based; design: dose 13.3 mg/kg
[7] = tested on: Trypanosoma brucei rhodesiense; experiment: […] activity against Trypanosoma brucei rhodesiense Wellcome CT infected in ICR/HA mouse assessed as curated mouse at 6.5 mg/kg, sc treated within 2 hrs of parasite infection measured up to 30 days; assay type: functional, organism-based; design: dose 6.5 mg/kg
[8] = tested on: Trypanosoma brucei rhodesiense; experiment: […] activity against Trypanosoma brucei rhodesiense Wellcome CT infected in ICR/HA mouse assessed as curated mouse at 13.3 mg/kg, sc treated within 2 hrs of parasite infection measured up to 30 days; assay type: functional, organism-based; design: dose 13.3 mg/kg
[9] = tested on: Trypanosoma brucei rhodesiense; experiment: […] activity against Trypanosoma brucei rhodesiense Wellcome CT infected in ICR/HA mouse assessed as curated mouse at 106 mg/kg, sc treated within 2 hrs of parasite infection measured up to 30 days; assay type: functional, organism-based; design: dose 106 mg/kg
[10] = tested on: Trypanosoma brucei rhodesiense; experiment: […] activity against Trypanosoma brucei rhodesiense Wellcome CT infected in ICR/HA mouse assessed as curated mouse at 26.5 mg/kg, po treated within 2 hrs of parasite infection measured up to 30 days; assay type: functional, organism-based; design: dose 26.5 mg/kg
Mus musculus [11] = experiment: Toxicity in Trypanosoma brucei rhodesiense Wellcome CT infected ICR/HA mouse assessed as mortality at 424 mg/kg, sc treated within 2 hrs of parasite infection measured up to 30 days; assay type: organism-based; design: dose 424 mg/kg, route subcutaneous; settings: in vivo
[12] = tested on: Trypanosoma brucei rhodesiense; experiment: […] activity against Trypanosoma brucei rhodesiense Wellcome CT infected in ICR/HA mouse assessed as curated mouse at 212 mg/kg, sc treated within 2 hrs of parasite infection measured up to 30 days; assay type: functional, organism-based; design: dose 212 mg/kg
[13] = tested on: Trypanosoma brucei rhodesiense; experiment: […] activity against Trypanosoma brucei rhodesiense Wellcome CT infected in ICR/HA mouse assessed as curated mouse at 212 mg/kg, po treated within 2 hrs of parasite infection measured up to 30 days; assay type: functional, organism-based; design: dose 212 mg/kg
Mus musculus [14] = experiment: Toxicity in Trypanosoma brucei rhodesiense Wellcome CT infected ICR/HA mouse assessed as mortality at 212 mg/kg, po treated within 2 hrs of parasite infection measured up to 30 days; assay type: organism-based; design: dose 212 mg/kg, route oral; settings: in vivo
Mus musculus [15] = experiment: Toxicity in Trypanosoma brucei rhodesiense Wellcome CT infected ICR/HA mouse assessed as mortality at 212 mg/kg, sc treated within 2 hrs of parasite infection measured up to 30 days; assay type: organism-based; design: dose 212 mg/kg, route subcutaneous; settings: in vivo
[16] = tested on: Trypanosoma brucei rhodesiense; experiment: […] activity against Trypanosoma brucei rhodesiense Wellcome CT infected in ICR/HA mouse assessed as curated mouse at 106 mg/kg, po treated within 2 hrs of parasite infection measured up to 30 days; assay type: functional, organism-based; design: dose 106 mg/kg
[17] = tested on: Trypanosoma brucei rhodesiense; experiment: […] activity against Trypanosoma brucei rhodesiense Wellcome CT infected in ICR/HA mouse assessed as curated mouse at 26.5 mg/kg, sc treated within 2 hrs of parasite infection measured up to 30 days; assay type: functional
[18] = tested on: Trypanosoma brucei rhodesiense; experiment: […] activity against Trypanosoma brucei rhodesiense Wellcome CT infected in ICR/HA mouse assessed as curated mouse at 6.5 mg/kg, po treated within 2 hrs of parasite infection measured up to 30 days; assay type: functional, organism-based; design: dose 6.5 mg/kg

Row | Structure (SMILES) | Activity [1] | Activity [2] | Activity [3] | Activity (Mus musculus [4]) | Activity [5] | Activity [6] | Activity [7] | Activity [8] | Activity [9] | Activity [10] | Activity (Mus musculus [11]) | Activity [12] | Activity [13] | Activity (Mus musculus [14]) | Activity (Mus musculus [15]) | Activity [16] | Activity ([17]; route subcutaneous) [%] | Activity [18] | Activity [17]
1 | Cc1ccccc1[P+](Cc1ccccc1)(c1ccccc1)c1ccccc1.[Cl-] | inactive | inactive | inactive | Toxic | inactive | inactive | inactive | inactive | inactive | inactive | Toxic |  |  |  |  |  |  |  | 
2 | Cc1ccccc1[P+](Cc1ccccc1)(c1ccccc1)c1ccccc1C.[Cl-] |  | inactive | inactive |  | inactive | inactive |  | inactive |  |  | Toxic | inactive | inactive | Toxic | Toxic |  |  |  | 
3 | N=C(N)c1ccc(/C=C/c2ccc(C(=N)N)cc2)cc1 [STILBAMIDINE] | Active | Active | Active |  | Active |  |  | Active | Active |  |  | Active | Active |  |  | Active | 98 | inactive | 
4 | CCCCCCCCCCCC[P+](c1ccccc1)(c1ccccc1)c1ccccc1 |  | inactive |  |  | inactive |  |  |  | inactive |  |  | inactive |  |  |  |  |  |  | inactive
5 | C=CC[P+](c1ccccc1)(c1ccccc1)c1ccccc1.[Br-] |  | inactive |  |  | inactive |  |  | inactive |  |  | Toxic |  |  |  |  |  |  |  | inactive
6 | [Br-].c1ccc([P+](c2ccccc2)(c2ccccc2)c2ccccc2)cc1 [TETRAPHENYLPHOSPHONIUM BROMIDE] |  | inactive |  |  | inactive |  |  |  | inactive |  | Toxic | inactive |  |  | Toxic |  |  |  | inactive
7 | [Br-].c1ccc([P+](Cc2cccc3cccnc23)(c2ccccc2)c2ccccc2)cc1 | inactive | inactive |  |  |  |  |  | inactive |  |  | Toxic |  |  |  |  |  |  |  | inactive
8 | Cc1ccc(C[P+](c2ccccc2)(c2ccccc2)c2ccccc2)cc1.[Cl-] |  |  |  |  |  |  |  |  |  |  | Toxic |  |  |  |  |  | 20 |  | 
9 | [Br-].c1ccc(C[P+](c2ccccc2)(c2ccccc2)c2ccccc2)cc1 | inactive | inactive | inactive |  |  | inactive | inactive | inactive | inactive | inactive | Toxic |  | inactive | Toxic |  |  |  |  | inactive
10 | Cc1ccccc1[P+](Cc1ccccc1)(c1ccccc1C)c1ccccc1C.[Cl-] |  | inactive |  | Toxic | inactive | inactive |  | inactive | inactive | inactive | Toxic |  |  |  |  | inactive |  |  | inactive
11 | [I-].c1ccc(CC(c2ccccc2)[P+](c2ccccc2)(c2ccccc2)c2ccccc2)cc1 (configuration not stated) |  | inactive |  |  | inactive |  |  | inactive | inactive |  | Toxic |  |  |  |  |  |  |  | inactive
12 | CC(C)(C)c1cc(C[P+](c2ccccc2)(c2ccccc2)c2ccccc2)cc(C(C)(C)C)c1O.[Br-] | inactive | inactive | inactive |  | inactive | inactive |  | inactive | inactive | inactive |  | inactive | inactive | Toxic |  | inactive |  |  | inactive
13 | CCOc1ccc(C[P+](c2ccccc2)(c2ccccc2)c2ccccc2)cc1.[Cl-] |  | inactive |  |  |  |  |  | inactive |  |  | Toxic | inactive |  |  | Toxic |  |  |  | inactive
14 | Clc1ccccc1C[P+](c1ccccc1)(c1ccccc1)c1ccccc1.[Cl-] |  | inactive | inactive | Toxic | inactive | inactive |  | inactive |  | inactive | Toxic | inactive | inactive | Toxic | Toxic | inactive |  |  | 
15 | Cc1ccc(C[P+](c2ccccc2)(c2ccccc2)c2ccccc2)cc1 | inactive | inactive | inactive |  | inactive | inactive | inactive | inactive | inactive | inactive |  | inactive | inactive |  |  | inactive |  |  | inactive
16 | Cc1cccc([P+](Cc2ccccc2)(c2cccc(C)c2)c2cccc(C)c2)c1.[Cl-] |  | inactive | inactive |  |  | inactive |  | inactive | inactive | inactive | Toxic |  |  |  |  | inactive |  |  | 
17 | COC(=O)c1ccccc1C[P+](c1ccccc1)(c1ccccc1)c1ccccc1 |  |  |  |  |  |  |  | inactive |  |  |  |  |  |  |  |  |  |  | inactive
18 | Clc1ccc(OC[P+](c2ccccc2)(c2ccccc2)c2ccccc2)cc1.[Cl-] |  | inactive |  |  | inactive |  |  | inactive |  |  | Toxic |  |  |  |  |  |  |  | inactive
19 | N=C(N)c1ccc(/C=C/c2ccc(C(=N)N)cc2O)cc1 [HYDROXYSTILBAMIDINE] |  |  |  |  |  |  |  |  |  |  |  |  |  |  |  |  | 71 |  | 
20 | Cc1ccccc1C[P+](c1ccccc1)(c1ccccc1)c1ccccc1 | inactive | inactive | inactive |  | inactive | inactive |  | inactive | inactive | inactive |  | inactive | inactive |  |  | inactive |  |  | inactive
21 | Cc1ccc(C[P+](c2ccccc2)(c2ccccc2)c2ccccc2)cc1.[Br-] |  |  |  | Toxic |  |  |  |  |  |  | Toxic |  |  | Toxic | Toxic |  |  |  | 
22 | Cc1ccccc1C[P+](c1ccccc1)(c1ccccc1)c1ccccc1.[Cl-] |  |  |  |  |  |  |  |  |  |  | Toxic |  |  |  | Toxic |  | 40 |  | 
23 | Cc1ccc([P+](Cc2ccccc2)(c2ccccc2)c2ccccc2)cc1.[Cl-] |  | inactive | inactive | Toxic | inactive | inactive | inactive | inactive |  | inactive | Toxic | inactive | inactive | Toxic | Toxic | inactive |  |  | inactive
24 | Cc1ccccc1C[P+](c1ccccc1)(c1ccccc1)c1ccccc1.[Br-] |  |  |  | Toxic |  |  |  |  |  |  | Toxic |  |  |  | Toxic |  |  |  | 
